From US11001590B2, “Pyrazolopyrimidine derivatives” (BAYER ANIMAL HEALTH GMBH, priority 2016, dated 2021)

Key:
[1] = target: C. elegans Slo-1a (Caenorhabditis elegans, UniProt Q95V25); test: In vitro assay 1: C. elegans Slo-1a, action at a recombinant C. elegans CHO cell line (membrane potential measurement)
[2] = log P by HPLC on reversed phase columns (Method L0; [a] acidic, [b] neutral range)
Description: Calibration was done with straight-chain alkan-2-ones (with 3 to 16 carbon atoms) with known log P values (measurement of log P values using retention times with linear interpolation between successive alkanones). Lambda-max-values were determined using UV-spectra from 200 nm to 400 nm and the peak values of the chromatographic signals.

[3] = system: Dirofilaria immitis microfilariae; test: In vitro assay 3: Dirofilaria immitis microfilariae (DIROIM L1), motility; conditions: 72 h, reduction of motility vs negative control, 72 h incubation

Sequence of C. elegans Slo-1a (Q95V25 whole entry): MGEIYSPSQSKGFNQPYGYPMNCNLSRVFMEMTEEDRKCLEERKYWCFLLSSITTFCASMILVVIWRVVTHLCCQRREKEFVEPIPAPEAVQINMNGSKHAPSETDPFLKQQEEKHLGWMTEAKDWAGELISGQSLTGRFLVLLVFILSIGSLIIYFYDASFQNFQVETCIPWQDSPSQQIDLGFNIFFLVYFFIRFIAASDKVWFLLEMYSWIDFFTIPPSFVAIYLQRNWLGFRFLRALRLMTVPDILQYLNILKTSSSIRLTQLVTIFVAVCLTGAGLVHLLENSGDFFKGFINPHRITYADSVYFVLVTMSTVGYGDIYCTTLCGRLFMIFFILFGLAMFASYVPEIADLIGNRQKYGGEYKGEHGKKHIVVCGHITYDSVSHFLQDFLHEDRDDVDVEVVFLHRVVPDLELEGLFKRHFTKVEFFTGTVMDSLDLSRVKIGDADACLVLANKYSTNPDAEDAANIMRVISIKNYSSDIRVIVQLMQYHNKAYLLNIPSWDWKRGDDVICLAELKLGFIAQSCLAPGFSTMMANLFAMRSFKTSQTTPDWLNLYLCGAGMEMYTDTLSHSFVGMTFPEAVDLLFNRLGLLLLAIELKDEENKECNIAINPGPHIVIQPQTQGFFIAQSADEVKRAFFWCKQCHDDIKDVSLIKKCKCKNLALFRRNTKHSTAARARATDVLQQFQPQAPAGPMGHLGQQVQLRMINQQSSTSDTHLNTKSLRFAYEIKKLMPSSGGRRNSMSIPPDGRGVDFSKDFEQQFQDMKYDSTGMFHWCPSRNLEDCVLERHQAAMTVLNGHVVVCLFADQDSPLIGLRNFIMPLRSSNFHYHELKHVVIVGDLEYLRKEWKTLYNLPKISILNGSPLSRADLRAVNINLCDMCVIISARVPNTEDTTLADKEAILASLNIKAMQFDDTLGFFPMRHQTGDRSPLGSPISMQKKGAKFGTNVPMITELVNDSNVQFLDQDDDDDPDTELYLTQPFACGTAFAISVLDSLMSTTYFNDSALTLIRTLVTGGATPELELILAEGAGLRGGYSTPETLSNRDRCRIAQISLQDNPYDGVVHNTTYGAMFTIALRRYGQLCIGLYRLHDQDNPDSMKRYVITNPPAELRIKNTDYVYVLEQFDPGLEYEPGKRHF

**Q.** Which results are given for `CC(C)c1c(C(=O)N[C@H]2CCCc3ccccc32)cnc2c(-c3ccccc3Cl)c(Cl)nn12` [Example 78]?
**A.** EC50 [1]: 31.6 nM; chromatographic logP [2]: 5.07; EC50 [3]: < 0.1 µg/mL

**Q.** With `Cc1nn2c(C(C)C)c(C(=O)N[C@H]3CCCc4ccccc43)cnc2c1-c1ccccc1F` [Example 94] as the compound, how does the EC50 [1] read?
**A.** 15.8 nM

**Q.** What about the chromatographic logP [2] of the same compound?
**A.** 4.72

**Q.** And the EC50 [3]?
**A.** < 0.1 µg/mL

**Q.** For `Cc1nn2c(C(C)C)c(C(=O)N[C@H]3CCCc4ccccc43)cnc2c1-c1ccc(F)c(F)c1` [Example 102], which EC50 [1] is on record?
**A.** 63.1 nM

**Q.** What about the chromatographic logP [2] of the same compound?
**A.** 5.14

**Q.** And the EC50 [3]?
**A.** < 10 µg/mL

**Q.** With `Cc1nn2c(C(C)C)c(C(=O)N[C@H]3CCCc4ccccc43)cnc2c1-c1cc(F)ccc1F` [Example 115] as the compound, how does the EC50 [1] read?
**A.** 15.8 nM

**Q.** And the chromatographic logP [2]?
**A.** 4.89

**Q.** And the EC50 [3]?
**A.** < 0.1 µg/mL

**Q.** Which results are given for `Cc1nn2c(C(C)C)c(C(=O)N[C@H]3CCOc4ccccc43)cnc2c1-c1ccc(Cl)cc1` [Example 118]?
**A.** EC50 [1]: 15.8 nM; chromatographic logP [2]: 4.88; EC50 [3]: < 0.1 µg/mL

**Q.** What does the source list for `Cc1nn2c(C(C)C)c(C(=O)N[C@H]3CCc4ccccc43)cnc2c1-c1cc(Cl)c(Cl)c(Cl)c1` [Example 122]?
**A.** EC50 [1]: 12.6 nM; chromatographic logP [2]: 6.58; EC50 [3]: < 0.1 µg/mL

**Q.** What does the source list for `Cc1nn2c(C(C)C)c(C(=O)N[C@H]3CCCc4ccccc43)cnc2c1-c1cc(Cl)c(Cl)c(Cl)c1` [Example 125]?
**A.** EC50 [1]: 25.1 nM; chromatographic logP [2]: 6.86; EC50 [3]: < 1 µg/mL

**Q.** Which EC50 [1] does the source give for `CC(C)c1c(C(=O)N[C@H]2CCc3ccccc32)cnc2c(-c3c(F)cc(F)cc3F)c(C(F)(F)F)nn12` [Example 133] here?
**A.** 79.4 nM

**Q.** What about the chromatographic logP [2] of the same compound?
**A.** 5.01

**Q.** And the EC50 [3]?
**A.** < 1 µg/mL

**Q.** Which EC50 [1] does the source give for `CC(C)c1c(C(=O)N[C@H]2CCc3ccccc32)cnc2c(-c3c(F)cccc3F)c(C(F)(F)F)nn12` [Example 135] here?
**A.** 126 nM

**Q.** And the chromatographic logP [2]?
**A.** 4.81

**Q.** What about the EC50 [3] of the same compound?
**A.** < 0.1 µg/mL

**Q.** For `CC(C)c1c(C(=O)N[C@H]2CCOc3ccccc32)cnc2c(-c3cccc(OC(F)(F)F)c3)c(C(F)(F)F)nn12` [Example 137], which EC50 [1] is on record?
**A.** 25.1 nM

**Q.** And the chromatographic logP [2]?
**A.** 5.31

**Q.** And the EC50 [3]?
**A.** < 10 µg/mL

**Q.** What does the source list for `CC(C)c1c(C(=O)N[C@H]2CCCc3ccccc32)cnc2c(-c3c(F)cccc3F)c(C(F)(F)F)nn12` [Example 138]?
**A.** EC50 [1]: 316 nM; chromatographic logP [2]: 5.06; EC50 [3]: < 10 µg/mL

**Q.** For `CC(C)c1c(C(=O)N[C@H]2CCOc3ccccc32)cnc2c(-c3c(F)cccc3F)c(C(F)(F)F)nn12` [Example 139], which EC50 [1] is on record?
**A.** 126 nM

**Q.** And the chromatographic logP [2]?
**A.** 4.56

**Q.** What about the EC50 [3] of the same compound?
**A.** < 0.1 µg/mL

**Q.** For `CC(C)c1c(C(=O)N[C@H]2CCOc3ccccc32)cnc2c(-c3c(F)cc(F)cc3F)c(C(F)(F)F)nn12` [Example 140], which EC50 [1] is on record?
**A.** 79.4 nM

**Q.** What about the chromatographic logP [2] of the same compound?
**A.** 4.77

**Q.** What about the EC50 [3] of the same compound?
**A.** < 0.1 µg/mL

**Q.** Which EC50 [1] does the source give for `COCc1cccc(-c2c(C(F)(F)F)nn3c(C(C)C)c(C(=O)N[C@H]4CCOc5ccccc54)cnc23)c1` [Example 142] here?
**A.** 79.4 nM

**Q.** And the chromatographic logP [2]?
**A.** 4.6

**Q.** And the EC50 [3]?
**A.** < 10 µg/mL

**Q.** With `CC(C)c1c(C(=O)N[C@H]2CCOc3ccccc32)cnc2c(-c3cc(Cl)cc(C(F)(F)F)c3)c(C(F)(F)F)nn12` [Example 143] as the compound, how does the EC50 [1] read?
**A.** 12.6 nM

**Q.** And the chromatographic logP [2]?
**A.** 5.78

**Q.** And the EC50 [3]?
**A.** < 10 µg/mL

**Q.** Which EC50 [1] does the source give for `COCc1cccc(-c2c(C(F)(F)F)nn3c(C(C)C)c(C(=O)N[C@H]4CCc5ccccc54)cnc23)c1` [Example 144] here?
**A.** 158 nM

**Q.** And the chromatographic logP [2]?
**A.** 4.87

**Q.** And the EC50 [3]?
**A.** < 10 µg/mL

**Q.** Which EC50 [1] does the source give for `Cc1nn2c(C(C)C)c(C(=O)N[C@H]3CCCc4ccccc43)cnc2c1-c1cccc(C(F)F)c1` [Example 145] here?
**A.** 31.6 nM

**Q.** And the chromatographic logP [2]?
**A.** 4.93

**Q.** What about the EC50 [3] of the same compound?
**A.** < 10 µg/mL

**Q.** With `Cc1nn2c(C(C)C)c(C(=O)N[C@H]3CCCc4ccccc43)cnc2c1-c1cccc2c1OC(F)(F)O2` [Example 146] as the compound, how does the EC50 [1] read?
**A.** 25.1 nM

**Q.** And the chromatographic logP [2]?
**A.** 5.47

**Q.** What about the EC50 [3] of the same compound?
**A.** < 0.1 µg/mL

**Q.** With `Cc1nn2c(C(C)C)c(C(=O)N[C@H]3CCCc4ccccc43)cnc2c1-c1ccc2c(c1)OC(F)(F)O2` [Example 148] as the compound, how does the EC50 [1] read?
**A.** 39.8 nM

**Q.** What about the chromatographic logP [2] of the same compound?
**A.** 5.59

**Q.** And the EC50 [3]?
**A.** < 10 µg/mL

**Q.** Which results are given for `CC(C)c1c(C(=O)N[C@H]2CCc3ccccc32)cnc2c(-c3cccc(OC(F)(F)F)c3)c(C(F)(F)F)nn12` [Example 149]?
**A.** EC50 [1]: 63.1 nM; chromatographic logP [2]: 5.55; EC50 [3]: < 10 µg/mL

**Q.** Which results are given for `CC(C)c1c(C(=O)N[C@H]2CCc3ccccc32)cnc2c(-c3cc(Cl)cc(C(F)(F)F)c3)c(C(F)(F)F)nn12` [Example 150]?
**A.** EC50 [1]: 50.1 nM; chromatographic logP [2]: 6.22; EC50 [3]: < 10 µg/mL

**Q.** For `Cc1nn2c(C(C)C)c(C(=O)N[C@H]3CCc4ccccc43)cnc2c1-c1cccc(C(F)F)c1` [Example 151], which EC50 [1] is on record?
**A.** 31.6 nM

**Q.** What about the chromatographic logP [2] of the same compound?
**A.** 4.67

**Q.** What about the EC50 [3] of the same compound?
**A.** < 1 µg/mL

**Q.** Which EC50 [1] does the source give for `CC(C)c1c(C(=O)N[C@H]2CCc3ccccc32)cnc2c(-c3cncc(F)c3)c(C(F)(F)F)nn12` [Example 155] here?
**A.** 3160 nM

**Q.** What about the chromatographic logP [2] of the same compound?
**A.** 4.25

**Q.** And the EC50 [3]?
**A.** < 10 µg/mL

**Q.** Which results are given for `CC(C)c1c(C(=O)N[C@H]2CCc3ccccc32)cnc2c(-c3cncc(Cl)c3)c(C(F)(F)F)nn12` [Example 156]?
**A.** EC50 [1]: 631 nM; chromatographic logP [2]: 4.7; EC50 [3]: < 10 µg/mL

**Q.** For `CC(C)c1c(C(=O)N[C@H]2CCc3ccccc32)cnc2c(-c3cccc(F)c3)c(C(F)(F)F)nn12` [Example 157], which EC50 [1] is on record?
**A.** 100 nM

**Q.** And the chromatographic logP [2]?
**A.** 5.02

**Q.** And the EC50 [3]?
**A.** < 10 µg/mL

**Q.** For `CC(C)c1c(C(=O)N[C@H]2CCc3ccccc32)cnc2c(-c3ccccc3F)c(C(F)(F)F)nn12` [Example 158], which EC50 [1] is on record?
**A.** 158 nM

**Q.** And the chromatographic logP [2]?
**A.** 4.76

**Q.** And the EC50 [3]?
**A.** < 10 µg/mL

**Q.** For `CC(C)c1c(C(=O)N[C@H]2CCc3ccccc32)cnc2c(-c3cc(F)c(F)c(F)c3)c(C(F)(F)F)nn12` [Example 159], which EC50 [1] is on record?
**A.** 1000 nM

**Q.** And the chromatographic logP [2]?
**A.** 5.4

**Q.** What about the EC50 [3] of the same compound?
**A.** < 10 µg/mL

**Q.** For `COc1cc(-c2c(C(F)(F)F)nn3c(C(C)C)c(C(=O)N[C@H]4CCc5ccccc54)cnc23)ccc1F` [Example 160], which EC50 [1] is on record?
**A.** 100 nM

**Q.** And the chromatographic logP [2]?
**A.** 4.89

**Q.** What about the EC50 [3] of the same compound?
**A.** < 10 µg/mL

**Q.** With `Cc1nn2c(C(C)C)c(C(=O)N[C@H]3CCc4ccccc43)cnc2c1-c1ccccc1` [Example 174] as the compound, how does the EC50 [1] read?
**A.** 15.8 nM

**Q.** And the chromatographic logP [2]?
**A.** 4.59

**Q.** And the EC50 [3]?
**A.** < 0.1 µg/mL

**Q.** With `Cc1nn2c(C(C)C)c(C(=O)N[C@H]3CCCc4ccccc43)cnc2c1-c1ccccc1` [Example 175] as the compound, how does the EC50 [1] read?
**A.** 63.1 nM

**Q.** And the chromatographic logP [2]?
**A.** 4.94

**Q.** What about the EC50 [3] of the same compound?
**A.** < 10 µg/mL

**Q.** What does the source list for `Cc1nn2c(C(C)C)c(C(=O)N[C@H]3CCOc4ccccc43)cnc2c1-c1ccccc1` [Example 176]?
**A.** EC50 [1]: 12.6 nM; chromatographic logP [2]: 4.28; EC50 [3]: < 0.1 µg/mL

**Q.** With `COc1cccc(-c2c(C)nn3c(C(C)C)c(C(=O)N[C@H]4CCc5ccccc54)cnc23)n1` [Example 177, (S)—N-(2,3-Dihydro-1H-inden-1-yl)-7-isopropyl-3-(6-methoxypyridin-2-yl)-2-methylpyrazolo[1,5-a]pyrimidine-6-carboxamide] as the compound, how does the EC50 [1] read?
**A.** 158 nM

**Q.** What about the chromatographic logP [2] of the same compound?
**A.** 4.89

**Q.** And the EC50 [3]?
**A.** < 10 µg/mL

**Q.** With `Cc1nn2c(C(C)C)c(C(=O)N[C@H]3CCc4ccccc43)cnc2c1-c1cccc(F)n1` [Example 178] as the compound, how does the EC50 [1] read?
**A.** 794 nM

**Q.** What about the chromatographic logP [2] of the same compound?
**A.** 4.6

**Q.** And the EC50 [3]?
**A.** < 10 µg/mL

**Q.** Which EC50 [1] does the source give for `Cc1nn2c(C(C)C)c(C(=O)N[C@H]3CCc4ccccc43)cnc2c1-c1cccc(C(F)(F)F)n1` [Example 179] here?
**A.** 398 nM

**Q.** What about the chromatographic logP [2] of the same compound?
**A.** 5.39

**Q.** And the EC50 [3]?
**A.** < 10 µg/mL

**Q.** What does the source list for `Cc1nn2c(C(C)C)c(C(=O)N[C@H]3CCOc4ccccc43)cnc2c1-c1ccc(Cl)cc1Cl` [Example 180]?
**A.** EC50 [1]: 7.94 nM; chromatographic logP [2]: 5.02; EC50 [3]: < 0.1 µg/mL

**Q.** Which results are given for `Cc1nn2c(C(C)C)c(C(=O)N[C@H]3CCc4ccccc43)cnc2c1-c1ccc(Cl)cc1Cl` [Example 181]?
**A.** EC50 [1]: 12.6 nM; chromatographic logP [2]: 5.31; EC50 [3]: < 0.1 µg/mL
